Data on 2 compounds can be found in patent publication US20220235030A1, “SELECTIVE HISTAMINE H3 ANTAGONIST ACID ADDITION SALTS AND PROCESS FOR THE PREPARATION THEREOF” (RICHTER GEDEON NYRT., priority 2019, published 2022).

Entries after “also recorded” stand apart in the source; their conditions may differ. Structures can show the parent of a compound that is named as a salt.

For orientation: solubility means the concentration that dissolves in the medium under given conditions.

What all share (assay type): physicochemical
Data set [1] is described as follows: Solubility in simulated gastric fluid. Particulars: simulated gastric fluid (SGF without pepsin, pH=1.3). The text has this:
The generally observed hygroscopic nature of the 1-[4-(4-{3-[(2R)-2-methyl-pyrrolidin-1-yl]-propoxy}-phenoxy)-piperidin-1-yl]-ethanone salts is inter alia related to the good solubility thereof.

Data set [2] in a line: 10-day solid stress stability study, HPLC purity test. Conditions: for chemical stability (in words): 10-day solid stress: heat, heat and humidity. The text has this: Increased stability to ambient humidity is beneficial for longer-term physical and chemical stability of the active ingredient. The relationship between the reduced hygroscopic nature and the increased chemical stability associated with it is shown in the most preferred citrate salts in comparison to the dihydrochloride salt.

A short description of data set [3]: Dynamic vapor sorption (DVS) analysis at 25° C., hygroscopicity and deliquescence. On the set-up: Δm/ΔRH: unit not given beside the values. Conditions: for Critical Relative Humidity (CRH): RH1 of first sorption step with Δm/ΔRH≥0.5; for Δm/ΔRH: 25° C. How it is done:
Determination of the critical relative humidity is feasible by gravimetric method, e.g. with DVS, where relative humidity is changed in suitably selected steps and a sufficiently long time is used to the onset of quasi-equilibrium.
The deliquescence tendency of each salt is characterized by the critical relative humidity (CRH) value (Table 1), which was determined based on the sorption curves measured according to the measurement parameter settings below, with DVS analysis at 25° C. isotherm conditions, according to the following. […]
If the given sorption step is Δm/ΔRH≥0.5, then RH1 is considered to be the critical relative humidity (CRH) value indicating the end point of the physical stability of the substance. The value thus determined is a good match with the onset of a significant monotonic weight gain observed visually on the sorption curve. Above the critical relative humidity value, it is the process of deliquescence of the substance that determines the weight gain observed on the sorption curve.

Data set [4] is described as follows: Thermogravimetric (TG) analysis of thermal stability. An excerpt: The compound of 1-[4-(4-{3-[(2R)-2-methyl-pyrrolidin-1-yl]-propoxy}-phenoxy)-piperidin-1-yl]-ethanone contains a single strongly basic center (pyrrolidine nitrogen), which is capable of forming stoichiometric salt with equimolar hydrochloride, thus the formation of dihydrochloride stoichiometry is not expected in view of the acid/base character of the compound. Based on TG and DSC analysis, the second molar amount of hydrochloride is less strongly bound to the crystal lattice, behaving as a volatile component. […] (FIG. 8). Parallelly to this process, according to the DSC and microscopic analysis, the sample starting from approx. 100° C. melts during decomposition (FIG. 9).

On to `CC(=O)N1CCC(Oc2ccc(OCCCN3CCC[C@H]3C)cc2)CC1` [dicitrate, 1-[4-(4-{3-[(2R)-2-methyl-pyrrolidin-1-yl]-propoxy}-phenoxy)-piperidin-1-yl]-ethanone dicitrate salt], for which, in data set [1] (dicitrate salt), the solubility is 469 mM. Besides, the “chemical stability (in words)” value in data set [2] (dicitrate salt) was “stable”. Also, the “All contaminant (area %)” value in data set [2] (10 days, 40° C., 75% RH, open glass, dicitrate salt) was found to be 0.24% area %; in data set [2] (10 days, 50° C., 75% RH, open glass, dicitrate salt) it was 0.25% area %; in data set [2] (10 days, 50° C., sealed glass, dicitrate salt) it was 0.23% area %; in data set [2] (10 days, 75° C., sealed glass, dicitrate salt), 0.24% area %; in data set [2] (starting sample, dicitrate salt), 0.23% area %. The “Critical Relative Humidity (CRH)” value in data set [3] (DVS at 25° C., dicitrate salt) was “not deliquescent”. Further, the Δm/ΔRH is listed as 0.0 in data set [3] (RH1 0%, sorption, dicitrate salt); 0.0 in data set [3] (RH1 10%, sorption, dicitrate salt); 0.0 in data set [3] (RH1 20%, sorption, dicitrate salt); 0.0 in data set [3] (RH1 30%, sorption, dicitrate salt); 0.0 in data set [3] (RH1 40%, sorption, dicitrate salt); 0.0 in data set [3] (RH1 50%, sorption, dicitrate salt). For the same compound, the Δm/ΔRH worked out at 0.0 in data set [3] (RH1 60%, sorption, dicitrate salt); 0.0 in data set [3] (RH1 70%, sorption, dicitrate salt); 0.1 in data set [3] (RH1 80%, sorption, dicitrate salt). Moreover, the “deliquescence (in words)” value is on record as “does not show deliquescence” in data set [3] (above 90% RH, DVS 25° C., dicitrate salt) and “do not show deliquescence; also recorded: not deliquescent” in data set [3] (under the conditions of the DVS analysis, dicitrate salt). Also, the “hygroscopicity (in words)” value in data set [3] (dicitrate salt) was “poorly hygroscopic”. The water bound is listed as 3.2% in data set [3] (sorption curve, up to 80% RH, dicitrate salt) and 6.8% in data set [3] (sorption curve, up to 90% RH).
`CC(=O)N1CCC(Oc2ccc(OCCCN3CCC[C@H]3C)cc2)CC1` [diHCl, 1-[4-(4-{3-[(2R)-2-methyl-pyrrolidin-1-yl]-propoxy}-phenoxy)-piperidin-1-yl]-ethanone dihydrochloride salt]: the solubility result in data set [1] (dihydrochloride salt) is given as “greater than 59 mM”. Besides, the “chemical stability (in words)” value in data set [2] (dihydrochloride salt) is “slightly degraded by heat; also recorded: degrades significantly under the combined effect of heat and humidity”. For the same compound, the “All contaminant (area %)” value turned out to be 59.56% area % in data set [2] (10 days, 40° C., 75% RH, open glass, dihydrochloride salt); 51.32% area % in data set [2] (10 days, 50° C., 75% RH, open glass, dihydrochloride salt); 0.98% area % in data set [2] (10 days, 50° C., sealed glass, dihydrochloride salt); 1.50% area % in data set [2] (10 days, 75° C., sealed glass, dihydrochloride salt); 0.85% area % in data set [2] (starting sample, dihydrochloride salt). The “thermal stability (in words)” value in data set [4] was “thermally poorly stable”. For the same compound, the “Critical Relative Humidity (CRH)” value in data set [3] (DVS at 25° C., dihydrochloride salt) was 60%. The Δm/ΔRH in data set [3] (RH1 0%, sorption, dihydrochloride salt) was 0.0; in data set [3] (RH1 10%, sorption, dihydrochloride salt), 0.0; in data set [3] (RH1 20%, sorption, dihydrochloride salt), 0.0; in data set [3] (RH1 30%, sorption, dihydrochloride salt), 0.0; in data set [3] (RH1 40%, sorption, dihydrochloride salt), 0.0; in data set [3] (RH1 50%, sorption, dihydrochloride salt) it was 0.0. Moreover, the Δm/ΔRH in data set [3] (RH1 60%, sorption, dihydrochloride salt) is listed as 1.7; in data set [3] (RH1 70%, sorption, dihydrochloride salt) it was 2.4; in data set [3] (RH1 80%, sorption, dihydrochloride salt) it was 2.1. Also, the “hygroscopicity (in words)” value in data set [3] (dihydrochloride salt) is “highly hygroscopic”. In data set [3] (sorption curve, at 70% RH), this compound registered a relative weight gain of 17%. Also, the relative weight change in data set [3] (sorption curve, at 90% RH) is recorded as 63%. Also, in data set [3] (sorption curve, up to 60% RH), the “water bound relative to the dried mass” value was “about 0.7%”. Moreover, in data set [3] (sorption, DVS at 25° C., dihydrochloride salt), the “relative humidity above which high, continuous weight gain (deliquescence) is observed” value is listed as “above 60%”.
